Experimental data as given in patent USRE39072E1, “2-aminopropane-1,3-diol compounds, medicinal use thereof, and intermediates in synthesizing the same” (Mitsubishi Pharma Corporation, priority 1997, dated 2006).

Tests used:
[1] = system: allogenic skin graft (WKAH rat to F344 rat); experiment: Allogenic skin graft in rats, WKAH rat skin to F344 rat; type: in vivo; conditions: oral; for mean survival time of skin graft: once a day for 14 days, dose 1 mg/kg or 10 mg/kg (FIG. 1), not stated which
Text: (§1) A full-thickness skin graft (1.5×1.5 cm) of a 4-week-old male WKAH rat or LEW rat is grafted to a graft to a graft bed on the back of a 4-week-old male F344 rat by suture. The graft is covered with a sterile gauze and bound. The bandage is removed 5 days after the grafting and the skin graft is observed daily until it is rejected. […] The number of days from the grafting to rejection is taken as a graft survival days. Test compounds are intraperitoneally, intravenously or orally administered repeatedly once a day for 14 days.
The comparative compound 1 was 2-amino-2-(2-(4-(4-phenylbutyloxy)phenyl)ethyl)propane-1,3-diol disclosed in WO94/08943, comparative compound 2 was 2-amino-2-methyl-2-(2-(4-(4-phenylbutyloxy)phenyl)butanol disclosed in WO96/06068.

[2] = Body weight change on allogenic skin graft in rats; type: in vivo, rat; conditions: 13 days of consecutive repeat oral administration of 10 mg/kg, rats of allogenic skin graft test (FIG. 2)
Method: (Body weight change on allogenic skin graft in rats)
The changes in body weight in rats of Experimental Example 12 on testing of allogenic skin graft in rats, after 13 days of consecutive repeat oral administration of 10 mg/kg of test compounds are shown in FIG. 2.

[3] = system: allogenic skin graft (LEW rat to F344 rat); experiment: Allogenic skin graft in rats, LEW rat skin to F344 rat; type: in vivo
Text: EXPERIMENTAL EXAMPLE 12 (Prolonging effect of skin graft on allogenic skin graft in rats)
as §1

In the case of `NC(CO)(CO)CCc1ccc(C(=O)CCCCc2ccccc2)cc1` [Compound (I-a), 2-amino-2-(2-(4-(1-oxo-5-phenylpentyl)phenyl)ethyl)propane-1,3-diol], the “prolonging effect on graft survival compared with comparative compound 2” value [1] is reported as “equivalent prolonging effect”, the “prolonging effect on graft survival days compared to control group and comparative compound 1 group” value [1] is reported as “prolonged graft survival days statistically significantly” and the “mean survival time of skin graft” value [1] is reported as 16.6 ± 1.2 days. The “change in body weight” value [2] was “natural gain of body weight as in the control group”, the “prolonging effect on graft survival compared to control group administered with vehicle alone” value [3] was “statistically significant prolonging effect” and the “mean survival time of skin graft” value ([3]; dose not stated) was no less than 20 days.

With `NC(CO)(CO)CCc1ccc(OCCCCc2ccccc2)cc1` [comparative compound 1, 2-amino-2-(2-(4-(4-phenylbutyloxy)phenyl)ethyl)propane-1,3-diol, reference compound] the “mean survival time of skin graft” value [1] was 11.9 ± 0.7 days and the “change in body weight” value [2] was “a suppressive effect on the gain of the body weight”.

For `CC(N)(CO)CCc1ccc(OCCCCc2ccccc2)cc1` (stereo not shown) [comparative compound 2, reference compound], the “mean survival time of skin graft” value [1] was 15.6 ± 1.4 days and the “change in body weight” value [2] was “a suppressive effect on the gain of the body weight”.
